In ChEMBL document CHEMBL4665677, “Recent Advances of SHP2 Inhibitors in Cancer Therapy: Current Development and Clinical Application” (J Med Chem, 2020) one finds IC50, Activity and inhibition data, which are given here for 23 compounds.

Test [1] concerns the target T1, Tyrosine-protein phosphatase non-receptor type 11 (Homo sapiens, UniProt Q06124).
T1 sequence (Q06124 whole entry): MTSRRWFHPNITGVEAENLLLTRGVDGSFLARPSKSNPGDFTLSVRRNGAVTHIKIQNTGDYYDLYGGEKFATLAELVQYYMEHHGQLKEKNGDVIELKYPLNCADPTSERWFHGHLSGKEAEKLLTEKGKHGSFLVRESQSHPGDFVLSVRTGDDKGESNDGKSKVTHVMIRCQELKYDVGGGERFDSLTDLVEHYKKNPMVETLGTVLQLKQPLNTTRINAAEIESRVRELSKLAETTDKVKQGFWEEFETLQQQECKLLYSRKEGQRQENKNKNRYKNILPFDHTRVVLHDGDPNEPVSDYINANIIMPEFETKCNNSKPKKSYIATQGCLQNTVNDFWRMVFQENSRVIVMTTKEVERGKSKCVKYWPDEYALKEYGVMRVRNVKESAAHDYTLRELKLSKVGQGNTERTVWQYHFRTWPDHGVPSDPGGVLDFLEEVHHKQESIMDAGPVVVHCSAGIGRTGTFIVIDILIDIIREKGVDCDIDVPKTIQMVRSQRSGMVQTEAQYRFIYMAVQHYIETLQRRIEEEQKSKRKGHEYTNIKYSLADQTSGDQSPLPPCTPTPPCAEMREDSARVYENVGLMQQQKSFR
The test can be described thus: Allosteric inhibition of IRS1_pY1172(dPEG8)pY1222 activated-human full length SHP2 (Met1 to Leu525 residues) expressed in Escherichia coli BL21 Star (DE3) cells using DiFMUP as substrate preincubated for 30 to 60 mins followed by substrate addition and measured after 30 mins by fluorescence method.

The target of test [2] is T1, Tyrosine-protein phosphatase non-receptor type 11. Nature of the test: Inhibition of SHP2 PTP domain (unknown origin).
The target is the same in test [3]. Nature of the test: Allosteric inhibition of full length N-terminal His6-tagged human SHP2 (2 to 593 residues) expressed in Escherichia coli using DiFMUP as substrate in presence of activating peptide preincubated for 60 mins followed by substrate addition amd measured after 30 mins by fluorescence method.
Test [4] has as its target T2, Tyrosine-protein phosphatase non-receptor type 1 (Homo sapiens, UniProt P18031).
T2 sequence (P18031 whole entry): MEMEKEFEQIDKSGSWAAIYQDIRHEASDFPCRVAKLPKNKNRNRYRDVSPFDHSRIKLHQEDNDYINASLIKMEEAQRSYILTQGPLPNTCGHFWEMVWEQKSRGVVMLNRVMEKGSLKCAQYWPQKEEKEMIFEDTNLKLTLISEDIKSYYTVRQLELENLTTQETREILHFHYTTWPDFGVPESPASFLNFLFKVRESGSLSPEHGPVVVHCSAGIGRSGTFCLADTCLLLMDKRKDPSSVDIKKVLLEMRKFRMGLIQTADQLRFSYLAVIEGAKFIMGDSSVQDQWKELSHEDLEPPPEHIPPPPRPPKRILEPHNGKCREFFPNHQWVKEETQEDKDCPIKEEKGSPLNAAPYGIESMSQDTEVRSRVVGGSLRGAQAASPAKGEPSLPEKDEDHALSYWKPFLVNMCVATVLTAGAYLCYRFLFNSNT
The test can be described thus: Inhibition of PTP1B (unknown origin) using 6,8-difluoro-4-methylum-belliferylphosphate as substrate preincubated for 1 hr followed by substrate by fluorescence method.

Test [5] deals with T3, Tyrosine-protein phosphatase non-receptor type 6 (Homo sapiens, UniProt P29350). The test can be described thus: Inhibition of SHP1 (unknown origin) using 6,8-difluoro-4-methylum-belliferylphosphate as substrate preincubated for 1 hr followed by substrate by fluorescence method.
T3 sequence (P29350 whole entry, the tested form may be a part): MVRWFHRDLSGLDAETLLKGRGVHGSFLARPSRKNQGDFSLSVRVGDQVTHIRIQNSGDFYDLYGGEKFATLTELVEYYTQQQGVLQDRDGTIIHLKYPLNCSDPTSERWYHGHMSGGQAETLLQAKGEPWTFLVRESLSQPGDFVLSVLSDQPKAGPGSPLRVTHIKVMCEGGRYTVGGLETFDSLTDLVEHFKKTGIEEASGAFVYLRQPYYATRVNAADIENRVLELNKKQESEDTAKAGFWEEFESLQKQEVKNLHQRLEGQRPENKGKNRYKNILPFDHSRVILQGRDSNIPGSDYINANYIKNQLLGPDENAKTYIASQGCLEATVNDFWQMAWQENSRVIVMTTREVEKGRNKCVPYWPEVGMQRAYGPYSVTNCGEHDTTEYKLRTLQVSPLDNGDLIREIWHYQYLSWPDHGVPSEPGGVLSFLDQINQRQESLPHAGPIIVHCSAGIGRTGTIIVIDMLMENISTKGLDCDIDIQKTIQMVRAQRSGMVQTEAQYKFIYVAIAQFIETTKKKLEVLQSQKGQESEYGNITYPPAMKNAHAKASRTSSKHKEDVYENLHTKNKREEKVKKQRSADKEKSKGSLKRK
The target of test [6] is T1, Tyrosine-protein phosphatase non-receptor type 11. The test can be described thus: Inhibition of N-terminal His6-tagged TEV cleavage site-fused human SHP2 catalytic domain (248 to 527 residues) expressed in Escherichia coli Rosetta(DE3) using 6,8-difluoro-4-methylum-belliferylphosphate as substrate preincubated for 1 hr followed by substrate addition by fluorescence method.

For test [7], the target named is Tyrosine-protein phosphatase non-receptor type 11 (Homo sapiens, UniProt Q06124, Q257L/T253M). The test can be described thus: Inhibition of SHP2 T253M/Q257L double mutant (unknown origin).
Chain of Tyrosine-protein phosphatase non-receptor type 11 (Homo sapiens, UniProt Q06124, Q257L/T253M) (Q06124 2-593 T253M/Q257L limits assumed): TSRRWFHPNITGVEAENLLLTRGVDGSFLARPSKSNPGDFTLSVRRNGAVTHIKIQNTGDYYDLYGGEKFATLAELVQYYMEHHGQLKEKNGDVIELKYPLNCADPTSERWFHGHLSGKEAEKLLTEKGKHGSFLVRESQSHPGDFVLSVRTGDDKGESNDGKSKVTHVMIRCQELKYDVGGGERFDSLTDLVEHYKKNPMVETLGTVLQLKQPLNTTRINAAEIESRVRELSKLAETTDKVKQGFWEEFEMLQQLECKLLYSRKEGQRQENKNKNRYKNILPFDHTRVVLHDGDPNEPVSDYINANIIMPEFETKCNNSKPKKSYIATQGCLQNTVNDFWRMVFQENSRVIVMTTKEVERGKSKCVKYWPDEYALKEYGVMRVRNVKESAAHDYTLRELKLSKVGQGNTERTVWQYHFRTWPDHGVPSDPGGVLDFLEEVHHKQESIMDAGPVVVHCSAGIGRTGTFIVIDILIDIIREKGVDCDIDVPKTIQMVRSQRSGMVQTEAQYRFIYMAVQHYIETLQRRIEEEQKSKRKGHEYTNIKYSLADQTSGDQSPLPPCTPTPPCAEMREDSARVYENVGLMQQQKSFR
For test [8], the target named is T1, Tyrosine-protein phosphatase non-receptor type 11. The test can be described thus: Allosteric inhibition of full-length His6-tagged human SHP2 (2 to 527 residues) expressed in Escherichia coli using DiFMUP as substrate in presence of activating peptide (LN(pY)IDLDLV(dPEG8)LST(pY)ASINFQK-amide) by fluorescence method.
The subject of another test is MeWo. The test can be described thus: Antitumor activity against human MeWo cells xenografted in NSG (NOD/scid/IL2Rgnull) mouse assessed as reduction in tumor volume at 15 mg/kg, ip administered once daily for 21 days. In kind it is functional. Set-up: scale not given: the % may be the effect or the level left. The conditions noted are these: time 21 day.
For test [9], the target named is T4, Tyrosine-protein phosphatase non-receptor type 11 (Homo sapiens) (UniProt Q06124).
T4 sequence (whole entry): T1 sequence (Q06124 whole entry)
The test can be described thus: Allosteric inhibition of dPEG8 peptide-activated SHP2 (unknown origin) using DiFMUP as substrate at 100 nM preincubated for 30 followed by substrate addition and measured after 30 mins by fluorescence method relative to control.

Test [10] is described as follows: Antitumor activity against human LXFA526L cells xenografted in NMRI nu/nu mouse assessed as induction of tumor regression at 46 mg/kg, ip administered once daily and measured on day 27 relative to control. In kind it is functional. The following applies: time 27 day.
Test [11] addresses T3, Tyrosine-protein phosphatase non-receptor type 6. Nature of the test: Inhibition of N-terminal His6-tagged TEV cleavage site-fused human SHP1 (222 to 535 residues) expressed in Escherichia coli BL21(DE3)RILcodon+ or BL21(DE3)RPcodon+ using 4-nitrophenylphosphate as substrate.
In test [12] the target is T2, Tyrosine-protein phosphatase non-receptor type 1. Nature of the test: Inhibition of N-terminal His6-tagged TEV cleavage site-fused human PTP1B (2 to 297 residues) expressed in Escherichia coli BL21(DE3)RILcodon+ or BL21(DE3)RPcodon+ using 4-nitrophenylphosphate as substrate.
Test [13] deals with T1, Tyrosine-protein phosphatase non-receptor type 11. The test can be described thus: Allosteric inhibition of dPEG8 peptide-activated SHP2 (unknown origin) using DiFMUP as substrate preincubated for 30 followed by substrate addition and measured after 30 mins by fluorescence method.
The target is the same in test [14]. Nature of the test: Allosteric inhibition of [IRSl_pY1172(dPEG8)pY1222] peptide-activated SHP2 (unknown origin) using DiFMUP as substrate preincubated for 30 to 60 mins followed by substrate addition and measured after 30 mins by fluorescence method.
Test [15] deals with T2, Tyrosine-protein phosphatase non-receptor type 1. Nature of the test: Inhibition of His6-fused human PTP1B expressed in Escherichia coli cells using DiFMUP as substrate preincubated for 30 followed by substrate addition and by fluorescence method.
In test [16] the target is T3, Tyrosine-protein phosphatase non-receptor type 6. The test can be described thus: Inhibition of His6-fused human full length SHP1 expressed in Escherichia coli cells using DiFMUP as substrate preincubated for 30 mins followed by substrate addition and by fluorescence method.
Test [17] has the same target. The test can be described thus: Inhibition of His6-fused human SHP1 catalytic domain expressed in Escherichia coli cells using DiFMUP as substrate preincubated for 30 followed by substrate addition and by fluorescence method.
The target in test [18] is T1, Tyrosine-protein phosphatase non-receptor type 11. The test can be described thus: Allosteric inhibition of SHP2 (unknown origin) using DiFMUP as substrate preincubated for 60 mins in presence of activating peptide IRS-1 followed by substrate addition and measured after 60 mins by fluorescence method.
For test [19], the target named is T3, Tyrosine-protein phosphatase non-receptor type 6. Nature of the test: Inhibition of recombinant His6-fused SHP1 catalytic domain (unknown origin) using p-nitrophenyl phosphate as substrate by spectrophotometric analysis.

SMILES strings stand for the structures.

Turning to `O=c1c2ccccc2n2c(-c3ccccc3O)nnc2n1Cc1ccccc1Cl`, the IC50 in test [1] and in test [2] was over 100000 nM each time. In the case of `CC1(N)CCN(c2nc3sc(-c4cccc(Cl)c4Cl)nn3c2CO)CC1`, the IC50 in test [3] worked out at 22.3 nM. Consider `COc1ccc(N2N=C(c3ccc([N+](=O)[O-])cc3)/C(=N/Nc3ccc(S(=O)(=O)O)cc3)C2=O)cc1`, for which the IC50 was 6800 nM in [4], 2140 nM in test [5] and 500 nM in test [6]. With `COc1cccc(-c2nnc3n(Cc4ccccc4Cl)c(=O)c4ccccc4n23)c1O`, the IC50 was over 100000 nM in test [2] and 68000 nM in test [7]. As to `C[C@@H]1OCC2(CCC(c3cnc4nc(Sc5ccnc(N6CCCC6)c5Cl)ccc4n3)CC2)[C@@H]1N` (some centres undefined), in test [8], the IC50 turned out to be 100 nM. Consider `O=C(Nc1ccc(-c2cc[nH]c2)cc1)C(=O)Nc1cccc(-c2[nH]c3cc(O)c(C(=O)O)cc3c2I)c1`, for which the Activity in the test on MeWo was 52%.

`Nc1nc(N2CCC3(CC2)Cc2ncsc2[C@H]3N)cnc1Sc1ccnc(N)c1Cl` had an inhibition in test [9] (filed as negative allosteric modulator) of 49%. With `O=C1/C(=N\Nc2ccc(S(=O)(=O)O)cc2)C(c2ccc([N+](=O)[O-])cc2)=NN1c1ccc([N+](=O)[O-])cc1`, the Activity in test [10] came out at 42.6%. In addition, the figures for the IC50 in test [4], in test [5] and in test [6] were 3170 nM, 2080 nM and 70 nM, respectively. For `O=C1/C(=N\Nc2ccc(S(=O)(=O)O)cc2)C(c2ccc([N+](=O)[O-])cc2)=NN1c1ccc(C(F)(F)F)cc1`, the IC50 is 10600 nM in [4], 14400 nM in [5] and 940 nM in test [6].

Take `O=C(O)c1ccc(O)c(-c2nnc3n(Cc4ccccc4Cl)c(=O)c4ccccc4n23)c1`: in test [2], the half-maximal inhibitory concentration (IC50) was over 100000 nM.

For the compound `CCOC(=O)c1ccc(N2N=C(c3ccc([N+](=O)[O-])cc3)/C(=N/Nc3ccc(S(=O)(=O)O)cc3)C2=O)cc1`, the IC50 worked out at 1800 nM in test [11] and 2100 nM in test [12]. Regarding `O=C1/C(=N\Nc2ccc(S(=O)(=O)O)cc2)C(c2ccc([N+](=O)[O-])cc2)=NN1c1ccc(Cl)cc1`, the IC50 in test [4] was 8930 nM; in [5] it was 10200 nM; in [6], 1160 nM. `Nc1nc(N2CCC3(CC2)c2ncccc2C[C@H]3N)cnc1Sc1ccnc(N)c1Cl` displayed an inhibition in [9] of 20%. Turning to `Nc1nc(N2CCC3(CC2)Cc2ccncc2[C@H]3N)cnc1Sc1ccnc(N)c1Cl`, half-maximal inhibition in test [13] (IC50) was put at 7 nM. Turning to `Nc1nc(N2CCC3(CCC[C@H]3N)CC2)cnc1-c1cccc(Cl)c1Cl`, the IC50 in test [14] turned out to be 70 nM. In test [13], `Nc1nc(N2CCC3(CC2)Cc2cnccc2[C@H]3N)cnc1Sc1ccnc(N)c1Cl` returned an IC50 of 3 nM. Take `Cc1nc(N2CCC3(CC2)CO[C@@H](C)[C@H]3N)c(CO)nc1-c1cccc(Cl)c1Cl`: the IC50 in [15], in test [16] and in [17] was over 10000 nM in each case.

`COc1cccc(-c2nnc3n(Cc4ccc(C(=O)N5CCC[C@H]5C(=O)O)cc4Cl)c(=O)c4ccccc4n23)c1O`: the IC50 in test [2] is over 100000 nM. As to `CC1(CN)CCN(c2ncc(Sc3cccc(Cl)c3Cl)[nH]c2=O)CC1`, in test [18], the IC50 is under 50 nM. On to `CC1(N)CCN(c2cnc3c(-c4cccc(Cl)c4Cl)n[nH]c3c2)CC1`, for which the IC50 in [3] was 17.9 nM. For `NC(=O)[C@H](Cc1ccc(C(F)(F)P(=O)(O)O)cc1)NC(=O)[C@H](CC(=O)O)NC(=O)Cc1ccc(C(F)(F)P(=O)(O)O)cc1`, the IC50 in test [19] was 11000 nM.

Turning to `Cc1ccc(N2N=C(c3ccc([N+](=O)[O-])cc3)/C(=N/Nc3ccc(S(=O)(=O)O)cc3)C2=O)cc1`, the IC50 came out at 6560 nM in test [4], 9830 nM in [5] and 410 nM in test [6]. As for `Nc1nc(N2CCC3(CC2)Cc2ncccc2[C@H]3N)cnc1Sc1ccnc(N)c1Cl`, in [9], the inhibition stood at 30%.
